We go through seven molecules from US20250064090A1 (priority 2020, published 2025).

Where two headings read alike, the source gives them in different places.

The test system of test [1] is E. coli strains HT-99 (donor) and J53R (receptor). Format: cell-based, Escherichia coli. As to conditions: for Class of ingredient by conjugation frequency compared to control (in words): single ingredient, 100 mg/L, from Table 1.
Another test relates to HT99 or J53R cells. Format: cell-based, E. coli.

Regarding `Cc1ccc(C(C)C)cc1O` [Carvacrol, carvacrol], the Conjugation frequency in test [1] is 0.0052; in test [1] (3 hours, 37° C.), 0.0044. For the same molecule, the “Class of ingredient by conjugation frequency compared to control (in words)” value (“Class … compared to control (in words)” below) in test [1] is “conjugation enhancers”.
As for `O=CC=Cc1ccccc1` [Cinnamaldehyde, cinnamaldehyde], in test [1], the Conjugation frequency stood at 0.0014 and the “Class … compared to control (in words)” value was “conjugation inert ingredient”. The same molecule had a Conjugation frequency in test [1] (3 hours, 37° C.) of 0.0011. The “Conjugation compared to control (in words)” value in test [1] (result in words) was “not affected”.
Take `CC(C)=CCCC(C)=CC=O` [Citral, citral]: the Conjugation frequency in test [1] (3 hours, 37° C.) came out at 0.0023; in test [1] (citral alone or mixed with conjugation inhibitors (100 mg of each per mL stock, 10 μL in 10 mL), control 0.0014), 0.0028. Also, the “Class … compared to control (in words)” value in test [1] is reported as “conjugation enhancers”.
On to `C=CC(C)(O)CCC=C(C)C` (stereo not drawn) [Linalool, linalool], for which the Conjugation frequency in test [1] (3 hours, 37° C.) was found to be 0.00085. For the same molecule, in test [1], the “Class … compared to control (in words)” value is recorded as “conjugation inhibitors”.
Molecule `CCCCCCCC/C=C\CCCCCCCC(=O)O` [Oleic acid, oleic acid] returned a Conjugation frequency in test [1] (3 hours, 37° C.) of 0.00011. In test [1], the “Class … compared to control (in words)” value is given as “conjugation inhibitors”. In the test with HT99 or J53R cells, the “expression of the yqfA gene (hemolysin III family protein)” value is listed as “reduced”, the “fatty acid biosynthesis (fabB) gene expression upon treatment with oleic acid” value is on record as “inhibition” and the “fatty acid degradation (fadB) gene expression upon treatment with oleic acid” value was “inducing”.
Take `O=C(OC[C@H]1O[C@@H](OC(=O)c2cc(O)c(O)c(OC(=O)c3cc(O)c(O)c(O)c3)c2)[C@H](OC(=O)c2cc(O)c(O)c(OC(=O)c3cc(O)c(O)c(O)c3)c2)[C@@H](OC(=O)c2cc(O)c(O)c(OC(=O)c3cc(O)c(O)c(O)c3)c2)[C@@H]1OC(=O)c1cc(O)c(O)c(OC(=O)c2cc(O)c(O)c(O)c2)c1)c1cc(O)c(O)c(OC(=O)c2cc(O)c(O)c(O)c2)c1` [Tannic acid, tannic acid]: in test [1] (3 hours, 37° C.), the Conjugation frequency is 0.00007. Also, the “Class … compared to control (in words)” value in test [1] was “conjugation inhibitors”.
On the same counts, the results for `Cc1ccc(C(C)C)c(O)c1` [Thymol, thymol] are 0.0019 and “conjugation enhancers”.
